Patent publication US20070128217A1 (priority 2003, published 2007)

Tests used:
[1] = test system: antibodies in sera from SARS patients (sera 1a, 1b, 2, 6, 37, 62, London, SARS-yellow, SARS-green); assay type: binding, human; parameters: Binding of serum 6 to linear peptides of protein X1 of SARS-CoV Urbani / Binding of serum 37 to linear peptides of protein X1 of SARS-CoV Urbani / Binding of serum 6 to looped/cyclic peptide (PEPSCAN-ELISA) / Binding of serum 37 to looped/cyclic peptide (PEPSCAN-ELISA) / Binding of serum 37 to looped/cyclic peptides of protein X1 of SARS-CoV Urbani / Binding of serum 6 to linear peptides of protein X2 / Binding of serum 37 to linear peptides of protein X2 / Binding of serum 37 to looped/cyclic peptides of protein X2 of SARS-CoV Urbani / Binding of serum 6 to linear peptides of protein M of SARS-CoV Urbani / Binding of serum 37 to linear peptides of protein M of SARS-CoV Urbani / Binding of serum 6 to looped/cyclic peptides of protein M of SARS-CoV Urbani / Binding of serum 37 to looped/cyclic peptides of protein M of SARS-CoV Urbani / Binding of serum 6 to linear peptides of protein X3 of SARS-CoV Urbani / Binding of serum 37 to linear peptides of protein X3 of SARS-CoV Urbani / Binding of serum 37 to looped/cyclic peptides of protein X3 of SARS-CoV Urbani / Binding of serum 6 to linear peptides of protein X4 of SARS-CoV Urbani / Binding of serum 37 to linear peptides of protein X4 of SARS-CoV Urbani / Binding of serum 37 to looped/cyclic peptides of protein X4 of SARS-CoV Urbani / Binding of serum 6 to linear peptides of protein X5 of SARS-CoV Urbani / Binding of serum 37 to linear peptides of protein X5 of SARS-CoV Urbani / Binding of serum 37 to looped/cyclic peptides of protein X5 of SARS-CoV Urbani / Binding of serum 6 to linear peptides of protein N of SARS-CoV Urbani / Binding of serum 37 to linear peptides of protein N of SARS-CoV Urbani / Binding of serum 6 to linear peptide (PEPSCAN-ELISA) / Binding of serum 1a to looped/cyclic peptides of protein N of SARS-CoV Urbani / Binding of serum 1b to looped/cyclic peptides of protein N of SARS-CoV Urbani / Binding of serum 2 to looped/cyclic peptides of protein N of SARS-CoV Urbani / Binding of serum 6 to looped/cyclic peptides of protein N of SARS-CoV Urbani / Binding of serum 37 to looped/cyclic peptides of protein N of SARS-CoV Urbani / Binding of serum 62 to looped/cyclic peptides of protein N of SARS-CoV Urbani / Binding of serum London to looped/cyclic peptides of protein N of SARS-CoV Urbani / Binding of serum SARS-green to looped/cyclic peptides of protein N of SARS-CoV Urbani: unit not given here
[2] = test system: control sera (pooled serum of ten healthy LUMC hospital workers; commercial negative donor pooled serum from the Dutch bloodbank); assay type: binding, human; parameters: Binding of Control serum LUMC to linear peptides / Binding of Control serum Blood-bank to linear peptides / Binding of Control serum LUMC to looped peptides / Binding of Control Serum Blood-Bank to Looped peptides / Binding of Control serum LUMC to linear peptides of the protein M of SARS-CoV Urbani / Binding of Control serum Blood-bank to linear peptides of the protein M of SARS-CoV Urbani / Binding of Control serum LUMC to looped peptides of the protein M of SARS-CoV Urbani / Binding of Control Serum Blood-Bank to Looped peptides of the protein M of SARS-CoV Urbani: unit not given here
[3] = test system: rabbit serum obtained by immunizing a rabbit with the SARS-CoV strain Frankfurt 1; assay type: binding; parameters: Binding of a rabbit serum to linear peptides / Binding of a rabbit serum to looped peptides / Rabbit serum linear peptides / Rabbit serum looped peptides / Binding of a rabbit serum to linear peptides of protein N of SARS-CoV Urbani (Rabbit serum linear peptides) / Binding of a rabbit serum to looped/cyclic peptides of protein N of SARS-CoV Urbani (Rabbit serum looped peptides): unit not given here

Sequence: MTTVYHITVSQIQLS
- Binding of serum 1a to linear peptides of protein X2 [1]: 0.7
- Binding of serum 1a to looped/cyclic peptides of protein X2 of SARS-CoV Urbani [1]: 0.5
- Binding of serum 1b to linear peptides of protein X2 [1]: 0.6
- Binding of serum 1b to looped/cyclic peptides of protein X2 of SARS-CoV Urbani [1]: 0.5
- Binding of serum 2 to linear peptides of protein X2 [1]: 0.5
- Binding of serum 2 to looped/cyclic peptides of protein X2 of SARS-CoV Urbani [1]: 0.3
- Binding of serum 6 to linear peptides of protein X2 [1]: 0.5
- Binding of serum 6 to looped/cyclic peptides of protein X2 of SARS-CoV Urbani [1]: 0.3
- Binding of serum 37 to linear peptides of protein X2 [1]: 0.6
- Binding of serum 37 to looped/cyclic peptides of protein X2 of SARS-CoV Urbani [1]: 0.5
- Binding of serum 62 to linear peptides of protein X2 [1]: 0.5
- Binding of serum 62 to looped/cyclic peptides of protein X2 of SARS-CoV Urbani [1]: 0.6
- Binding of serum London to linear peptides of protein X2 [1]: 0.5
- Binding of serum London to looped/cyclic peptides of protein X2 of SARS-CoV Urbani [1]: 0.2
- Binding of serum SARS-green to linear peptides of protein X2 [1]: 0.2
- Binding of serum SARS-green to looped/cyclic peptides of protein X2 of SARS-CoV Urbani [1]: 0.4
- Binding of serum SARS-yellow to linear peptides of protein X2 [1]: 0.6
- Binding of serum SARS-yellow to looped/cyclic peptides of protein X2 of SARS-CoV Urbani [1]: 0.4
- Binding of Control Serum Blood-Bank to Looped peptides [2]: 0.6
- Binding of Control serum Blood-bank to linear peptides [2]: 0.6
- Binding of Control serum LUMC to linear peptides [2]: 0.6
- Binding of Control serum LUMC to looped peptides [2]: 0.5
- Binding of a rabbit serum to linear peptides [3]: 0.7
- Binding of a rabbit serum to looped peptides [3]: 0.4

Sequence: NACRIIMRCWLCWKC
- Binding of serum 1a to looped/cyclic peptide (PEPSCAN-ELISA) [1]: 0.6
- Binding of serum 1b to looped/cyclic peptide (PEPSCAN-ELISA) [1]: 0.5
- Binding of serum 2 to looped/cyclic peptide (PEPSCAN-ELISA) [1]: 0.5
- Binding of serum 6 to looped/cyclic peptide (PEPSCAN-ELISA) [1]: 0.6
- Binding of serum 37 to looped/cyclic peptide (PEPSCAN-ELISA) [1]: 0.5
- Binding of serum 62 to looped/cyclic peptide (PEPSCAN-ELISA) [1]: 0.7
- Binding of serum London to looped/cyclic peptide (PEPSCAN-ELISA) [1]: 0.3
- Binding of serum SARS-green to looped/cyclic peptide (PEPSCAN-ELISA) [1]: 0.3
- Binding of serum SARS-yellow to looped/cyclic peptide (PEPSCAN-ELISA) [1]: 0.4
- Recognition of the peptide by sera of SARS-CoV infected individuals, and form (linear, looped/cyclic) in which it is recognized [1]: recognized in linear form
- Binding of Control Serum Blood-Bank to Looped peptides [2]: 0.8
- Binding of Control serum Blood-bank to linear peptides [2]: 1.0
- Binding of Control serum LUMC to linear peptides [2]: 0.5
- Binding of Control serum LUMC to looped peptides [2]: 0.6
- Recognition of the peptide by the rabbit serum [3]: recognized

Sequence: NKFALTCTSTHFAFA
- Binding of serum 1a to linear peptides of protein X4 of SARS-CoV Urbani [1]: 0.6
- Binding of serum 1a to looped/cyclic peptides of protein X4 of SARS-CoV Urbani [1]: 0.9
- Binding of serum 1b to linear peptides of protein X4 of SARS-CoV Urbani [1]: 0.5
- Binding of serum 1b to looped/cyclic peptides of protein X4 of SARS-CoV Urbani [1]: 0.4
- Binding of serum 2 to linear peptides of protein X4 of SARS-CoV Urbani [1]: 0.4
- Binding of serum 2 to looped/cyclic peptides of protein X4 of SARS-CoV Urbani [1]: 0.8
- Binding of serum 6 to linear peptides of protein X4 of SARS-CoV Urbani [1]: 0.3
- Binding of serum 6 to looped/cyclic peptides of protein X4 of SARS-CoV Urbani [1]: 0.6
- Binding of serum 37 to linear peptides of protein X4 of SARS-CoV Urbani [1]: 0.7
- Binding of serum 37 to looped/cyclic peptides of protein X4 of SARS-CoV Urbani [1]: 0.7
- Binding of serum 62 to linear peptides of protein X4 of SARS-CoV Urbani [1]: 0.7
- Binding of serum 62 to looped/cyclic peptides of protein X4 of SARS-CoV Urbani [1]: 0.9
- Binding of serum London to linear peptides of protein X4 of SARS-CoV Urbani [1]: 0.7
- Binding of serum London to looped/cyclic peptides of protein X4 of SARS-CoV Urbani [1]: 0.3
- Binding of serum SARS-green to linear peptides of protein X4 of SARS-CoV Urbani [1]: 0.4
- Binding of serum SARS-green to looped/cyclic peptides of protein X4 of SARS-CoV Urbani [1]: 0.8
- Binding of serum SARS-yellow to linear peptides of protein X4 of SARS-CoV Urbani [1]: 0.5
- Binding of serum SARS-yellow to looped/cyclic peptides of protein X4 of SARS-CoV Urbani [1]: 0.7
- Binding of Control Serum Blood-Bank to Looped peptides [2]: 0.9
- Binding of Control serum Blood-bank to linear peptides [2]: 0.6
- Binding of Control serum LUMC to linear peptides [2]: 0.5
- Binding of Control serum LUMC to looped peptides [2]: 0.8
- Rabbit serum linear peptides [3]: 0.5
- Rabbit serum looped peptides [3]: 0.5
